The source of these data is article PMC7059629 (Letters in drug design & discovery, 2019).

Type in all cases: cell-based
One experiment concerns the target rat mGlu2/4 heterodimer (Rattus norvegicus, UniProt P31421+P31423). The experiment is described as follows: mGlu2/4 heterodimer PAM thallium flux assay. Conditions: for mGlu2/4 % Glu Max: ±SEM.
The next experiment concerns the target rat mGlu2 (Rattus norvegicus, UniProt P31421). Nature of the experiment: mGlu2 homodimer thallium flux assay. Conditions: rat mGlu2-HEK293 cells, EC20 glutamate.
In the next experiment the target is homodimeric mGlu4 (Homo sapiens, UniProt Q14833). Nature of the experiment: mGlu4 Gqi5 calcium assay.
The mark [1] stands for this setting: rat mGlu2/4-HEK293 cells, thallium flux, EC20 glutamate.

A value given as a limit tells only on which side of the number the result lay.

For `Cc1nc(-c2ccc(OCC(C)C)c(C#N)c2)sc1C(=O)NC1CCOCC1` [11a, 2-(3-cyano-4-iosbutoxyphenyl)-4-methyl-N-(tetrahydro-2H-pyran-4-yl)thiazole-5-carboxamide], on rat mGlu2/4 heterodimer (setting [1]), the “mGlu2/4 pEC50 (±SEM)” value stood at 5.28±0.03 and the “mGlu2/4 % Glu Max” value was 35±2 % Glu Max. The “mGlu2 pEC50 (±SEM)” value at rat mGlu2 was determined as 5.32±0.02. Also, the “mGlu2 % Glu Max” value on rat mGlu2 (±SEM) came to 73±30 % Glu Max.

As for `NC(=O)[C@@H]1CCCC[C@@H]1C(=O)Nc1ccc(Cl)c(Cl)c1` [compound 5, Lu AF21934], the “mGlu2/4 % Glu Max” value on rat mGlu2/4 heterodimer (setting [1]) was 89 % Glu Max.

As a reminder, the EC50 is the concentration at which the effect is half-maximal. In the case of `Cc1nc(-c2ccc(OCC(C)C)c(C#N)c2)sc1C(=O)O` [compound 9, febuxostat], the EC50 on homodimeric mGlu4 was above 30 µM; on rat mGlu2/4 heterodimer it was 3.39 µM. Further, the “mGlu2/4 % Glu Max” value on rat mGlu2/4 heterodimer (setting [1]) is given as 52.4±3.7 % Glu Max.
